We go through 15 compounds from US10287301B2 (Achillion Pharmaceuticals, Inc., priority 2015, dated 2019).

SMILES strings stand for the structures.

Sequence of Human Factor D (P00746 26-253): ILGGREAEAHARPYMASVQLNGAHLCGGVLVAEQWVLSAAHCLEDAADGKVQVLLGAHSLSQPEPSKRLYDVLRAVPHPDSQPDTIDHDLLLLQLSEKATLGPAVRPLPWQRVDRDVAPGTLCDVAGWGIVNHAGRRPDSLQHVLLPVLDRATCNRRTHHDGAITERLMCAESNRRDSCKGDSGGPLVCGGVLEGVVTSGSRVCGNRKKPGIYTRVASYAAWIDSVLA

The first experiment has as its target Human Factor D (Homo sapiens (Human), UniProt P00746). The experiment can be described thus: Human Factor D Assay. It counts as biochemical.
Conditions: not given
A digest of the protocol: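 Factor D (from human serum) 80 nM final + cpd, 5 min RT, 50 mM Tris/1M NaCl pH 7.5; add Z-L-Lys-SBzl 100 μM and DTNB 100 μM final. IC50 by nonlinear fit of rates vs [cpd].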
What is called IC50 is the concentration at which inhibition is half-maximal. `CC(=O)c1nn(CC(=O)N2C[C@H](F)C[C@H]2C(=O)Nc2cccc(Br)[n+]2[O-])c2ccc(-c3cnc(C)nc3)cc12` [Compound 743, 2-((2S,4R)-1-(2-(3-Acetyl-5-(2-methylpyrimidin-5-yl)-1H-indazol-1-yl)acetyl)-4-fluoropyrrolidine-2-carboxamido)-6-bromopyridine 1-oxide] returned an IC50 of 1000 to 10000 nM.

With `CC(=O)c1nn(CC(=O)N2C[C@H](F)C[C@H]2C(=O)Nc2cccc(Br)[n+]2[O-])c2ccc(-c3cnc(C)[n+]([O-])c3)cc12` [Compound 744, 5-(3-Acetyl-1-(2-((2S,4R)-2-((6-bromo-1-oxidopyridin-2-yl)carbamoyl)-4-fluoropyrrolidin-1-yl)-2-oxoethyl)-1H-indazol-5-yl)-2-methylpyrimidine 1-oxide], the concentration for half-maximal inhibition (IC50) was 1000 to 10000 nM.

The same experiment, now with this note: Human Factor D, Table 3; read-out: IC50.
Take `CC(=O)c1nn(CC(=O)N2C[C@H](F)C[C@H]2C(=O)Nc2cccc(Br)n2)c2cc(C(=O)N(C)C)c(-c3cnc(C)nc3)cc12` [Compound 722, 3-Acetyl-1-(2-((2S,4R)-2-((6-bromopyridin-2-yl)carbamoyl)-4-fluoropyrrolidin-1-yl)-2-oxoethyl)-N,N-dimethyl-5-(2-methylpyrimidin-5-yl)-1H-indazole-6-carboxamide]: the IC50 is less than 1000 nM. On the same count and under the same terms, the same measure for `CNc1ncc2cc(-c3cn(CC(=O)N4C[C@H](F)C[C@H]4C(=O)Nc4cccc(Br)n4)nc3C(N)=O)ccc2n1` [Compound 723, 1-(2-((2S,4R)-2-((6-Bromopyridin-2-yl)carbamoyl)-4-fluoropyrrolidin-1-yl)-2-oxoethyl)-4-(2-(methylamino)quinazolin-6-yl)-1H-pyrazole-3-carboxamide]: more than 10000 nM. For the compound `NC(=O)c1nn(CC(=O)N2C[C@H](F)C[C@H]2C(=O)Nc2cccc(Br)n2)cc1-c1cnn(C2CC2)c1` [Compound 726, 1-(2-((2S,4R)-2-((6-Bromopyridin-2-yl)carbamoyl)-4-fluoropyrrolidin-1-yl)-2-oxoethyl)-1′-cyclopropyl-1H,1′H-[4,4′-bipyrazole]-3-carboxamide], the IC50 was more than 10000 nM. Same read-out and setting: the same measure for `CC(=O)N1CC=C(c2cn(CC(=O)N3C[C@H](F)C[C@H]3C(=O)Nc3cccc(Br)n3)nc2C(N)=O)CC1` [Compound 727, 4-(1-acetyl-1,2,3,6-Tetrahydropyridin-4-yl)-1-(2-((2S,4R)-2-((6-bromopyridin-2-yl)carbamoyl)-4-fluoropyrrolidin-1-yl)-2-oxoethyl)-1H-pyrazole-3-carboxamide]: more than 10000 nM. The same measure, in the same setting: the same measure for `NC(=O)c1nn(CC(=O)N2C[C@H](F)C[C@H]2C(=O)Nc2cccc(Br)n2)cc1-c1cnn(-c2ncc(F)cn2)c1` [Compound 729, 1-(2-((2S,4R)-2-((6-Bromopyridin-2-yl)carbamoyl)-4-fluoropyrrolidin-1-yl)-2-oxoethyl)-1′-(5-fluoropyrimidin-2-yl)-1H,1′H-[4,4′-bipyrazole]-3-carboxamide]: more than 10000 nM; for `CC(=O)c1nn(CC(=O)N2[C@H](C)CC[C@H]2C(=O)Nc2nc(Br)ccc2C)c2ccc(-c3cnc(C)nc3)cc12` [Compound 731, (2S,5R)-1-(2-(3-Acetyl-5-(2-methylpyrimidin-5-yl)-1H-indazol-1-yl)acetyl)-N-(6-bromo-3-methylpyridin-2-yl)-5-methylpyrrolidine-2-carboxamide]: less than 1000 nM; for `CC(=O)c1nn(CC(=O)N2C[C@H](F)C[C@H]2C(=O)NC2(C#N)CC2)c2ccc(-c3cnc(C)nc3)cc12` [Compound 739, (2S,4R)-1-(2-(3-acetyl-5-(2-methylpyrimidin-5-yl)-1H-indazol-1-yl)acetyl)-N-(1-cyanocyclopropyl)-4-fluoropyrrolidine-2-carboxamide]: less than 1000 nM.

Regarding `CC(=O)c1nn(CC(=O)N2C[C@H](F)C[C@H]2C(=O)Nc2cccc(Br)n2)c2ccc(-c3cnc(N)[n+]([O-])c3)cc12` [Compound 741, 5-(3-acetyl-1-(2-((2S,4R)-2-((6-Bromopyridin-2-yl)carbamoyl)-4-fluoropyrrolidin-1-yl)-2-oxoethyl)-1H-indazol-5-yl)-2-aminopyrimidine 1-oxide], the IC50 was less than 1000 nM. The same measure, in the same setting: the same measure for `CC(=O)c1nn(CC(=O)N2C[C@H](F)C[C@H]2C(=O)Nc2cccc(Br)n2)c2ccc(-c3cnc(C)[n+]([O-])c3)cc12` [Compound 742, 5-(3-Acetyl-1-(2-((2S,4R)-2-((6-bromopyridin-2-yl)carbamoyl)-4-fluoropyrrolidin-1-yl)-2-oxoethyl)-1H-indazol-5-yl)-2-methylpyrimidine 1-oxide]: less than 1000 nM. Same read-out and setting: for `CC(=O)c1nn(CC(=O)N2C[C@H](F)C[C@H]2C(=O)Nc2cccc(-c3cc(S(=O)(=O)NC4CC4)ccc3Cl)c2F)c2ccc(-c3cnc(C)nc3)cc12` [Compound 745, (2S,4R)-1-(2-(3-Acetyl-5-(2-methylpyrimidin-5-yl)-1H-indazol-1-yl)acetyl)-N-(2′-chloro-5′-(N-cyclopropylsulfamoyl)-2-fluoro-[1,1′-biphenyl]-3-yl)-4-fluoropyrrolidine-2-carboxamide] the value was less than 1000 nM. The same measure, in the same setting: for `CC(=O)c1nn(CC(=O)N2CCOC[C@@H]2C(=O)Nc2cccc(Br)n2)c2ccc(-c3cnc(C)nc3)cc12` [Compound 748, (R)-4-(2-(3-acetyl-5-(2-methylpyrimidin-5-yl)-1H-indazol-1-yl)acetyl)-N-(6-bromopyridin-2-yl)morpholine-3-carboxamide] the value was less than 1000 nM. `CC(=O)c1nn(CC(=O)N2CCOC[C@H]2C(=O)Nc2cccc(Br)n2)c2ccc(-c3cnc(C)nc3)cc12` [Compound 749, (S)-4-(2-(3-acetyl-5-(2-methylpyrimidin-5-yl)-1H-indazol-1-yl)acetyl)-N-(6-bromopyridin-2-yl)morpholine-3-carboxamide]: the concentration for half-maximal inhibition (IC50) is less than 1000 nM.

Take `CC(=O)c1nn(CC(=O)N2C[C@H](F)C[C@H]2C(=O)Nc2cccc(S(=O)(=O)C(F)(F)F)c2)c2ccc(-c3cnc4cc(C)nn4c3)cc12` [Compound 752, (2S,4R)-1-(2-(3-acetyl-5-(2-methylpyrazolo[1,5-a]pyrimidin-6-yl)-1H-indazol-1-yl)acetyl)-4-fluoro-N-(3-((trifluoromethyl)sulfonyl)phenyl) pyrrolidine-2-carboxamide]: the IC50 was less than 1000 nM.
